Here are results for 7 molecules from publication PMC7717691, “Design, synthesis, and anticonvulsant effects evaluation of nonimidazole histamine H3 receptor antagonists/inverse agonists containing triazole moiety” (Journal of Enzyme Inhibition and Medicinal Chemistry, 2020).

For orientation: IC50 means the concentration at which inhibition is half-maximal. Low readings indicate higher potency, high ones lower potency. For orientation: EC50 means the concentration needed to bring the measured effect to its halfway point. As a reminder, the melting point is the temperature of the solid-liquid transition.

“Also recorded” adds a separate entry of the source. Like-named read-outs stand apart in the source and are kept apart here.

The nature of series [1]: Rotarod test (neurotoxicity). The note with it: 10 and 20 mg/kg. Type of series: in vivo. The source says:
To exclude the possibility that the anticonvulsant activity of 3m was connected with sedative effect, we carried out a rotarod test for 3m.
On the technique in general: The rotarod test checks motor coordination on a turning rod.

A further series relates to MES-induced convulsions. Nature of the series: MES-induced convulsions model. As to conditions: mice; for protection against MES-induced convulsions (reduction or abolition of THLE): i.p.; for protection against MES-induced convulsions in different doses: Figure 7. Type of series: in vivo. From the text:
Protection for the mice was defined as the reduction or abolition of the tonic hind limb extension (THLE) in the MES model in mice.
Ear stimulation with alternating current (0.2 s, 60 Hz, 50 mA) was used to induce the seizures in mice. The reduction or abolition of the hind limb tonic extension (THLE) of mice was considered protective against the MES-induced seizures[29]^,[48]. […]

Series [2] concerns the target T1, H3R (Homo sapiens, UniProt Q9Y5N1).
T1 construct: expressed in transfected cells
Nature of the series: CRE-driven luciferase reporter gene assay, H3R antagonistic activity. As to conditions: for % Antagonism 100 nM: 100 nM compound; for % Antagonism 100 nM / % Antagonism 1 μM: HEK-293 cells expressing human H3R, mean ± SD of three experiments; for % Antagonism 1 μM: 1 μM compound. Type of series: cell-based. As for the experimental part:
cAMP-response element (CRE) reporter gene assay has been extensively used to evaluate the efficacy of GPCR antagonists or agonists. […] Initially, compounds and positive controls were tested at two concentrations (100 nM and 1 µM) to obtain the preliminary investigation of their H3R antagonistic activities. In the assays, the antagonistic activities was positively correlated with the rise of the fluorescence value and indicated by the % antagonism. For the prominent compounds IC50 values were determined at additional assays.
Human thalamus poly-A RNA (Clontech, Palo Alto, CA, USA) was used to clone the hH3R gene by RT-PCR. DNA PCR primers were designed in the light of the reported human histamine receptor gene sequences (GenBank accession no.AF140538). HEK-293 cells were cultured and transfected for the luciferase assay. The detailed procedures were described in the previous publication.
Stable HEK-293 cells, which had been co-transfected with H3R and pCRE-Luc, were seeded in a 96-well plate overnight, and were grown to 90–95% confluence[43]^,[44]. Then the cells were treated with various concentrations of tested compounds in serum-free DMEM and incubated for 20 min. Cells were then stimulated with 100 nM Histamine in serum-free DMEM containing 2 µM Forskolin and incubated for 4 h at 37 °C. Firefly luciferase assay kits (Ken-real, Shanghai, China) were used to determine the luciferase activity.
A general note: Reporter assays use an easily measured gene product as a stand-in for the process of interest.

Series [3] addresses T1, H3R. Nature of the series: CRE-luciferase assay, H3R inverse agonist activity (forskolin-stimulated transfected HEK-293 cells). The note with it: 10 µM forskolin plus compound; seven concentrations; read-out: H3R inverse agonistic activity EC50. Type of series: cell-based. The method, then: The raise of luciferase activity after adding compound represented the inverse agonistic activity. The EC50 was calculated by seven concentrations.

The next series relates to intracellular cAMP. Nature of the series: Effect of compounds administrated alone on the level of intracellular cAMP. Type of series: cell-based. The note with it: compound alone; ANOVA followed by Dunnett's test; Figure 2. From the text:
It is well known that H3R is a GPCR coupled with Gαi. When the ligand (histamine) binds to H3R, the dissociated Gαi inhibits the activity of adenylate cyclase (AC) and down-regulates the level of intracellular cAMP. In this CREs driven luciferase assay, when cells were pre-treated by H3R antagonists, the downregulation of cAMP would be inhibited, and the level of intracellular cAMP would regain to the initial level.

For series [4], the system named is PTZ. As to conditions: 10 mg/kg i.p., cited from earlier work.
Series [5] deals with MES. The note with it: cited from earlier work.
Series [6] concerns MES. The note with it: cited from earlier work. This is another data set of the same source.
Series [7] relates to PTZ. As to conditions: cited from earlier work.
For another series, the system named is PTZ-induced convulsions. Nature of the series: PTZ-induced convulsions model. Type of series: in vivo. As to conditions: mice, PTZ 85 mg/kg s.c. As for the experimental part:
To investigate the anticonvulsive effects, all the target compounds (3a-3q) were screened in the MES-induced and PTZ-induced convulsion models in mice. Compounds were administered intraperitoneally (i.p.) to mice at dosage of 10 mg/kg in the both models. PIT and valproic sodium (VPA) were used as positive controls in the tests.
PTZ (85 mg/kg) was injected subcutaneously to induce seizures. […] The following are the specific meaning of graded scores: score 0 = normal, score 1 = eyelids or facial twitches, score 2 = agitation with body twisting, score 3 = myo-clonic jerks or rearing, score 4 = turn over into one side position or running violently, and score 5 = turn over into back position, limbs tonic extension, or die during the experiment period.

Series [8] concerns human photosensitivity model. The note with it: dose ranges of 30–60 mg, alone or in combination with other AEDs; cited from earlier work.
The mark [9] stands for this setting: 10 mg/kg, 30 min before stimulation, vs saline group.

T1 sequence (Q9Y5N1 whole entry): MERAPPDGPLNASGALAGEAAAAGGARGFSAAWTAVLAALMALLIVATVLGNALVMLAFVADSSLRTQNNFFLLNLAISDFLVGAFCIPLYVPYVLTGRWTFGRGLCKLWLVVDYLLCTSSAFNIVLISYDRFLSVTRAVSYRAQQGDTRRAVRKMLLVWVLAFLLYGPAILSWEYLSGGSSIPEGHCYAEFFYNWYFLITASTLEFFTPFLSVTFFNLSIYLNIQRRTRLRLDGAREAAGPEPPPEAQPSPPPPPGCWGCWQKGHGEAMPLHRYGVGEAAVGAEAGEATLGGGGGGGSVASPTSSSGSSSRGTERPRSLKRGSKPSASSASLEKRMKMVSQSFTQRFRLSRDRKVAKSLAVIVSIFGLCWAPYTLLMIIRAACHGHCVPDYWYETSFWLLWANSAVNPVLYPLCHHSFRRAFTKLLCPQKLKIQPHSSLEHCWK

`Clc1ccc(-c2nncn2-c2ccc(OCCCN3CCCCC3)cc2)cc1` [Compound 3m, 1-(3-(4-(3-(4-chlorophenyl)-4H-1,2,4-triazol-4-yl)phenoxy)propyl)piperidine] showed a melting point of 165 to 167 °C. Besides, in series [1], the “neurotoxicity in rotarod test” value was “no neurotoxicity”. Moreover, in the series on MES-induced convulsions (10 mg/kg i.p. plus RAMH 10 mg/kg i.p.), the “protection against MES-induced seizures when co-treated with RAMH” value is listed as “fully abrogated; also recorded: lost its original protective effect”. The “protection against MES-induced convulsions (reduction or abolition of THLE)” value (shortened to “protection … (reduction or abolition of THLE)”) in the series with MES-induced convulsions (setting [9]) is “moderate protection”. For the same molecule, the “protection against MES-induced convulsions in different doses” value with MES-induced convulsions was “dose dependent”. At H3R [2], the “% Antagonism 100 nM” value was 201.12 ± 12.63% and the “% Antagonism 1 μM” value is 203.92 ± 8.44%. On H3R [2] (CRE luciferase assay, HEK-293 cells, Table 1), this molecule gave an IC50 of 5.92 nM. Further, the EC50 at H3R [3] amounted to 129 nM. Further, the “effect on the level of cAMP when treated alone” value in the series with intracellular cAMP was “no significant effects”.
`O=C1NC(c2ccccc2)(c2ccccc2)C(=O)N1CCCN1CCCCC1` [H3R ligand I]: the “PTZ (rats)” value in the series on PTZ [4] was “protection”. In addition, the “MES (rats)” value in the series with MES [5] (1 mg/kg i.p.) is “protection”.
With `S=C(NC1CCCCC1)N1CCC(c2cnc[nH]2)CC1` [Thioperamide], the “MES (mice)” value in the series on MES [6] (10 & 15 mg/kg i.p.) was “protection”. In addition, in the series on PTZ [7] (7.5 & 15 mg/kg i.p.), the “PTZ (mice)” value is recorded as “protection”.
For the molecule `CCCC(CCC)C(=O)O` [VPA, Valproic acid, reference compound], the “protection … (reduction or abolition of THLE)” value in the series with MES-induced convulsions (300 mg/kg) was “potently”. In addition, the “protection against PTZ-induced convulsions” value with PTZ-induced convulsions (300 mg/kg i.p.) is reported as “full protection”.
For the molecule `CCCCCCCOc1ccc2c(c1)-c1nncn1CCO2` [II], the “MES (mice)” value in the series with MES [6] (10 mg/kg i.p.) is listed as “protection”. For the same molecule, the “PTZ (mice)” value with PTZ [7] (30 mg/kg i.p.) is on record as “protection”.
With `CCC(C)(C)c1ccc(OCCCN2CCCCC2)cc1` [DL-77], the “MES (rats)” value with MES [5] (5, 10, 15 mg/kg) is recorded as “protection”.
Take `Clc1ccc(CCCOCCCN2CCCCC2)cc1` [PIT, Pitolisant, reference compound]: the “protection … (reduction or abolition of THLE)” value with MES-induced convulsions (setting [9]) is given as “moderately”. The “protection against MES-induced convulsions (THLE)” value in the series with MES-induced convulsions (20 mg/kg) is reported as “fully abrogate the tonic hind limb extension; also recorded: fully abrogate the THLE”. In addition, in the series with MES-induced convulsions, the “protection against MES-induced convulsions in different doses” value is “dose-dependently”. For the same molecule, on H3R [2], the “% Antagonism 100 nM” value worked out at 54.16 ± 7.33% and the “% Antagonism 1 μM” value is recorded as 246.29 ± 21.48%. Besides, the “EEG profile in the human photosensitivity model” value in series [8] is recorded as “favourable EEG profile in a dose-dependent manner”. Moreover, in the series with PTZ [4] (ref not printed (Figure 1)), the “PTZ (rats)” value is listed as “no protection”. Besides, the “protection against PTZ-induced convulsions” value in the series with PTZ-induced convulsions (10 mg/kg i.p.) is reported as “failed to protect”. The “MES (rats)” value with MES [5] (10 mg/kg i.p., ref not printed (Figure 1)) is recorded as “protection”.
